Legend:
[1] = biological target: T1, Adenosine receptor A2b (Homo sapiens) (UniProt P29275); assay: Inhibition at 50 uM on cAMP production induced by 50 uM 5`-(N-ethylcarboxamido)adenosine in CHO cell line transfected with human Adenosine A2B receptor cDNA; type: cell-based
T1 sequence (whole entry): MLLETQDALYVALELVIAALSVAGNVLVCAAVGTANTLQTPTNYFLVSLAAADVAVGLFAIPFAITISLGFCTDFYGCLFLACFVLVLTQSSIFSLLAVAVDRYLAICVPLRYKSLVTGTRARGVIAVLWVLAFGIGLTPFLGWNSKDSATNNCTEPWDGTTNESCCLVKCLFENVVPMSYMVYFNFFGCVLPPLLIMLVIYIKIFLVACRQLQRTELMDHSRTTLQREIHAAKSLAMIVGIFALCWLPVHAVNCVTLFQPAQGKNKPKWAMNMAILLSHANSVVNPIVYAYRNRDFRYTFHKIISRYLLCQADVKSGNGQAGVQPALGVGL

Adenosine receptor A1 = biological target: T2, Adenosine receptor A1 (Rattus norvegicus, UniProt P25099)
T2 sequence (P25099 whole entry): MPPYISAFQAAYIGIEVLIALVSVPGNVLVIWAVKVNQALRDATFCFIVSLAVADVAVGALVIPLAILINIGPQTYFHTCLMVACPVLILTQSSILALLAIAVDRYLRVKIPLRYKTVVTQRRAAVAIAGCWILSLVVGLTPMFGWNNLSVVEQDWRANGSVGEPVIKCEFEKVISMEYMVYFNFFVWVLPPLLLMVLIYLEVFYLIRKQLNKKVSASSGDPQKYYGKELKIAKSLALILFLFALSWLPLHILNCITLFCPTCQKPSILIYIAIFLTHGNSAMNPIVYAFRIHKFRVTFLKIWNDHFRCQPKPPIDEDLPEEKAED
Description: Binding affinity was determined in radioligand binding assay at rat brain adenosine A1 receptor vs [3H]R-PIA

[2] = Ratio against rat A2A receptor and Human A3 receptor
Adenosine receptor A2a = Adenosine receptor A2a (Rattus norvegicus, UniProt P30543); assay: Binding affinity was determined in radioligand binding assay at rat striatal Adenosine A2A receptor vs [3H]-CGS- 21680
[3] = Ratio against rat A1 receptor and Human A3 receptor
Adenosine receptor A3 = biological target: T3, Adenosine receptor A3 (Homo sapiens, UniProt P0DMS8); assay: biochemical
T3 sequence (P0DMS8 whole entry): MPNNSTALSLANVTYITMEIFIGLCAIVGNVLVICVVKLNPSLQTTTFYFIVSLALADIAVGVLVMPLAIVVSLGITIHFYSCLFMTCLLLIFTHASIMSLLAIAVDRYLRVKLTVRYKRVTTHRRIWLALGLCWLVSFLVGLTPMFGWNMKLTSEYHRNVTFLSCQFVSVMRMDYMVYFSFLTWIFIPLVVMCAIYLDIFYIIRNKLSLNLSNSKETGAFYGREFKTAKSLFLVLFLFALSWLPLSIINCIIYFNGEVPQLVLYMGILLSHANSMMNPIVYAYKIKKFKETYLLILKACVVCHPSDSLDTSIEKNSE
Description: Binding affinity at cloned human adenosine A3 receptor expressed in HEK293 cells was determined using [125I]AB-MECA as radioligand

Adenosine receptor A2b = biological target: T4, Adenosine receptor A2b (Homo sapiens, UniProt P29275); assay: Inhibition of 50 uM 5`-(N-ethylcarboxamido)adenosine induced cAMP production in CHO cell line expressing human Adenosine A2B receptor; type: cell-based
T4 sequence (P29275 whole entry): T1 sequence (whole entry)

Sequence of Adenosine receptor A2a (P30543 whole entry): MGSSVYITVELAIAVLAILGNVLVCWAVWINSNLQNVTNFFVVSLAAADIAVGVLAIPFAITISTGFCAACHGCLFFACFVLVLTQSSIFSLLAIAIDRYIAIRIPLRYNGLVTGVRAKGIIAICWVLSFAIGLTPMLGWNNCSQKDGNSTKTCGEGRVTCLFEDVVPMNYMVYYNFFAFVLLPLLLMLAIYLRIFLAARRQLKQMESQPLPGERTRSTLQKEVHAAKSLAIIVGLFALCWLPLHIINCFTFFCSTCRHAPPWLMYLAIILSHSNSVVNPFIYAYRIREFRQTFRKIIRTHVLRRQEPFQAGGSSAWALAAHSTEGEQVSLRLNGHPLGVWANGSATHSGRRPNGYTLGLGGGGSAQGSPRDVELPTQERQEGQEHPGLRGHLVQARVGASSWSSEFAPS

CCCCC(=O)Nc1nc2ccc(Cl)cc2c2nc(-c3ccco3)nn12
inhibition [1]: 79%

Nc1ccc(CC(=O)Nc2nc3ccc(Cl)cc3c3nc(-c4ccco4)nn23)cc1I
inhibition [1]: 23% | Ki (Adenosine receptor A1): 217 nM | Selectivity ratio [2]: 0.21 | Ki (Adenosine receptor A2a): 10.4 nM | Selectivity ratio [3]: 4.4 | Ki (Adenosine receptor A3): 49.3 nM

Nc1nc2ccc(Cl)cc2c2nc(-c3ccc(Br)o3)nn12
inhibition [1]: 16%

NCCCCCC(=O)Nc1nc2ccc(Cl)cc2c2nc(-c3ccco3)nn12
inhibition [1]: 79% | Ki (Adenosine receptor A1): 99.6 nM | Selectivity ratio [2]: 0.048 | Ki (Adenosine receptor A2a): 10.3 nM | Selectivity ratio [3]: 0.47 | Ki (Adenosine receptor A3): 213 nM

CC(C)(C)OC(=O)NCCCCCCC(=O)Nc1nc2ccc(Cl)cc2c2nc(-c3ccco3)nn12
Ki (Adenosine receptor A1): 38.2 nM | Selectivity ratio [2]: 0.21 | Ki (Adenosine receptor A2a): 11.1 nM | Selectivity ratio [3]: 0.71 | Ki (Adenosine receptor A3): 53.7 nM

CC(C)(C)OC(=O)Nc1nc2ccc(Cl)cc2c2nc(-c3ccco3)nn12
inhibition [1]: 92% | IC50 (Adenosine receptor A2b): 2410 nM

CCO/C(O)=C1\C(C)=NC(c2ccccc2)=C(C(=O)OCc2ccccc2)C1C#Cc1ccccc1 (stereo unspecified)
Ki (Adenosine receptor A2a): > 100 nM

CC(C)(C)OC(=O)NCCCCCC(=O)Nc1nc2ccc(Cl)cc2c2nc(-c3ccco3)nn12
Ki (Adenosine receptor A1): 53.8 nM | Selectivity ratio [2]: 1 | Ki (Adenosine receptor A2a): 33.7 nM | Selectivity ratio [3]: 1.6 | Ki (Adenosine receptor A3): 33.8 nM

CC(NC(=O)OC(C)(C)C)C(=O)Nc1nc2ccc(Cl)cc2c2nc(-c3ccco3)nn12 (stereo unspecified)
Ki (Adenosine receptor A1): 54.7 nM | Selectivity ratio [2]: 0.08 | Ki (Adenosine receptor A2a): 6.65 nM | Selectivity ratio [3]: 0.66 | Ki (Adenosine receptor A3): 82.9 nM

CC(C(=O)Nc1nc2ccc(Cl)cc2c2nc(-c3ccco3)nn12)(c1ccccc1)c1ccccc1
Ki (Adenosine receptor A1): 890 nM | Selectivity ratio [2]: 2.3 | Ki (Adenosine receptor A2a): 453 nM | Selectivity ratio [3]: 4.6 | Ki (Adenosine receptor A3): 194 nM

NCCCCCCC(=O)Nc1nc2ccc(Cl)cc2c2nc(-c3ccco3)nn12
inhibition [1]: 75% | Ki (Adenosine receptor A1): 114 nM | Selectivity ratio [2]: 0.16 | Ki (Adenosine receptor A2a): 55.9 nM | Selectivity ratio [3]: 0.33 | Ki (Adenosine receptor A3): 346 nM

O=C(Cc1cccc(I)c1)Nc1nc2ccc(Cl)cc2c2nc(-c3ccco3)nn12
Ki (Adenosine receptor A1): 45.4 nM | Selectivity ratio [2]: 0.011 | Ki (Adenosine receptor A2a): 9.67 nM | Selectivity ratio [3]: 0.051 | Ki (Adenosine receptor A3): 882 nM

CCCn1c(=O)n2nc(-c3ccco3)nc2c2cc(Cl)ccc21
inhibition [1]: 0%

NCCCCC(=O)Nc1nc2ccc(Cl)cc2c2nc(-c3ccco3)nn12
inhibition [1]: 100% | Ki (Adenosine receptor A1): 6.99 nM | Selectivity ratio [2]: 0.02 | Ki (Adenosine receptor A2a): 1.13 nM | Selectivity ratio [3]: 0.12 | IC50 (Adenosine receptor A2b): 1770 nM | Ki (Adenosine receptor A3): 57.9 nM

O=C(/C=C/c1ccccc1)Nc1nc2ccc(Cl)cc2c2nc(-c3ccco3)nn12
inhibition [1]: 38% | Ki (Adenosine receptor A1): 282 nM | Selectivity ratio [2]: 0.71 | Ki (Adenosine receptor A2a): 59.8 nM | Selectivity ratio [3]: 3.9 | Ki (Adenosine receptor A3): 72.1 nM

CC(C)(C)OC(=O)NCCC(=O)Nc1nc2ccc(Cl)cc2c2nc(-c3ccco3)nn12
Ki (Adenosine receptor A1): 31 nM | Selectivity ratio [2]: 1.1 | Ki (Adenosine receptor A2a): 7.58 nM | Selectivity ratio [3]: 4.6 | Ki (Adenosine receptor A3): 6.71 nM

CC(=O)Nc1nc2ccc(Cl)cc2c2nc(-c3ccco3)nn12
inhibition [1]: 92% | IC50 (Adenosine receptor A2b): 2650 nM

COC(=O)CCC(=O)Nc1nc2ccc(Cl)cc2c2nc(-c3ccco3)nn12
Ki (Adenosine receptor A1): 71.8 nM | Selectivity ratio [2]: 0.52 | Ki (Adenosine receptor A2a): 28.8 nM | Selectivity ratio [3]: 1.3 | Ki (Adenosine receptor A3): 55.1 nM

O=C(Nc1nc2ccc(Cl)cc2c2nc(-c3ccco3)nn12)c1ccccc1
inhibition [1]: 58%

CC(C)(C)OC(=O)NCCCCC(=O)Nc1nc2ccc(Cl)cc2c2nc(-c3ccco3)nn12
Ki (Adenosine receptor A1): 30.1 nM | Selectivity ratio [2]: 0.17 | Ki (Adenosine receptor A2a): 3.64 nM | Selectivity ratio [3]: 1.4 | Ki (Adenosine receptor A3): 22 nM

CCC(=O)Nc1nc2ccc(Cl)cc2c2nc(-c3ccco3)nn12
inhibition [1]: 66%

COC(=O)CCCCCCC(=O)Nc1nc2ccc(Cl)cc2c2nc(-c3ccco3)nn12
Ki (Adenosine receptor A1): 46.6 nM | Selectivity ratio [2]: 0.13 | Ki (Adenosine receptor A2a): 7.43 nM | Selectivity ratio [3]: 0.79 | Ki (Adenosine receptor A3): 59 nM

O=C(Nc1nc2ccc(Cl)cc2c2nc(-c3ccc(Br)o3)nn12)c1ccccc1
inhibition [1]: 0%

O=C(Cc1ccccc1)Nc1nc2ccc(Cl)cc2c2nc(-c3ccco3)nn12
inhibition [1]: 71% | Ki (Adenosine receptor A1): 52.7 nM | Ki (Adenosine receptor A2a): 10.3 nM

O=C(CCCCC(=O)OCc1ccccc1)Nc1nc2ccc(Cl)cc2c2nc(-c3ccco3)nn12
Ki (Adenosine receptor A1): 304 nM | Selectivity ratio [2]: 0.37 | Ki (Adenosine receptor A2a): 16.7 nM | Selectivity ratio [3]: 6.8 | Ki (Adenosine receptor A3): 44.7 nM

O=C(Cc1ccc(I)cc1)Nc1nc2ccc(Cl)cc2c2nc(-c3ccco3)nn12
inhibition [1]: 42% | Ki (Adenosine receptor A1): 13.8 nM | Selectivity ratio [2]: 0.16 | Ki (Adenosine receptor A2a): 9.93 nM | Selectivity ratio [3]: 0.22 | Ki (Adenosine receptor A3): 62.9 nM

COc1ccc(CC(=O)Nc2nc3ccc(Cl)cc3c3nc(-c4ccco4)nn23)cc1
Ki (Adenosine receptor A1): 30.2 nM | Selectivity ratio [2]: 1.9 | Ki (Adenosine receptor A2a): 28 nM | Selectivity ratio [3]: 2.1 | Ki (Adenosine receptor A3): 14.4 nM

O=C(Nc1nc2ccc(Cl)cc2c2nc(-c3ccco3)nn12)C(c1ccccc1)c1ccccc1
Ki (Adenosine receptor A1): 129 nM | Selectivity ratio [2]: 21 | Ki (Adenosine receptor A2a): 12.1 nM | Selectivity ratio [3]: 220 | Ki (Adenosine receptor A3): 0.586 nM

C[C@@H](N)C(=O)Nc1nc2ccc(Cl)cc2c2nc(-c3ccco3)nn12
Ki (Adenosine receptor A1): 193 nM | Selectivity ratio [2]: 0.026 | Ki (Adenosine receptor A2a): 29.7 nM | Selectivity ratio [3]: 0.17 | Ki (Adenosine receptor A3): 1140 nM

C[C@H](C(=O)Nc1nc2ccc(Cl)cc2c2nc(-c3ccco3)nn12)c1ccccc1
Ki (Adenosine receptor A1): 46.2 nM | Selectivity ratio [2]: 31 | Ki (Adenosine receptor A2a): 11.1 nM | Selectivity ratio [3]: 130 | Ki (Adenosine receptor A3): 0.362 nM

CCO/C(O)=C1\C(C)=NC(c2ccccc2)=C(C(=O)OCc2ccc([N+](=O)[O-])cc2)C1C#Cc1ccccc1 (stereo unspecified)
Ki (Adenosine receptor A1): > 100 nM | Ki (Adenosine receptor A2a): > 100 nM

CC(C)(C)OC(=O)NCCCC(=O)Nc1nc2ccc(Cl)cc2c2nc(-c3ccco3)nn12
inhibition [1]: 47% | Ki (Adenosine receptor A1): 45.9 nM | Selectivity ratio [2]: 0.6 | Ki (Adenosine receptor A2a): 19.9 nM | Selectivity ratio [3]: 1.4

O=C(Cc1ccccc1I)Nc1nc2ccc(Cl)cc2c2nc(-c3ccco3)nn12
Ki (Adenosine receptor A1): 2300 nM | Selectivity ratio [2]: < 1 | Ki (Adenosine receptor A2a): 17.2 nM | Selectivity ratio [3]: < 1 | Ki (Adenosine receptor A3): > 10000 nM

C[C@@H](NC(=O)OC(C)(C)C)C(=O)Nc1nc2ccc(Cl)cc2c2nc(-c3ccco3)nn12
Ki (Adenosine receptor A1): 48.6 nM | Selectivity ratio [2]: 0.41 | Ki (Adenosine receptor A2a): 18.8 nM | Selectivity ratio [3]: 1 | Ki (Adenosine receptor A3): 46.3 nM

Clc1ccc2nc(NCc3ccccc3)n3nc(-c4ccco4)nc3c2c1
inhibition [1]: 21% | Selectivity ratio [2]: 4.7 | Ki (Adenosine receptor A2a): 200 nM | Selectivity ratio [3]: 28 | Ki (Adenosine receptor A3): 42.5 nM

CCCC(=O)Nc1nc2ccc(Cl)cc2c2nc(-c3ccco3)nn12
inhibition [1]: 66%

O=C(Cc1cccc(Cl)c1)Nc1nc2ccc(Cl)cc2c2nc(-c3ccco3)nn12
inhibition [1]: 45% | Ki (Adenosine receptor A1): 43 nM | Selectivity ratio [2]: 0.29 | Ki (Adenosine receptor A2a): 9.43 nM | Selectivity ratio [3]: 1.3 | Ki (Adenosine receptor A3): 32.1 nM

Nc1ccc(CC(=O)Nc2nc3ccc(Cl)cc3c3nc(-c4ccco4)nn23)cc1
inhibition [1]: 90% | IC50 (Adenosine receptor A2b): 7400 nM | Ki (Adenosine receptor A3): 3.56 nM

O=C(Nc1nc2ccc(Cl)cc2c2nc(-c3ccco3)nn12)c1cccc(I)c1
inhibition [1]: 38%

Oc1nc2ccc(Cl)cc2c2nc(-c3ccco3)nn12
inhibition [1]: 0%

C[C@@H](C(=O)Nc1nc2ccc(Cl)cc2c2nc(-c3ccco3)nn12)c1ccccc1
Ki (Adenosine receptor A1): 37.5 nM | Ki (Adenosine receptor A2a): 20.1 nM | Ki (Adenosine receptor A3): 0.468 nM

CC(C)(C)C(=O)Nc1nc2ccc(Cl)cc2c2nc(-c3ccco3)nn12
inhibition [1]: 89% | IC50 (Adenosine receptor A2b): 2400 nM

NCCC(=O)Nc1nc2ccc(Cl)cc2c2nc(-c3ccco3)nn12
inhibition [1]: 83% | Ki (Adenosine receptor A1): 89.8 nM | Selectivity ratio [2]: 0.0088 | Ki (Adenosine receptor A2a): 7.58 nM | Selectivity ratio [3]: 0.1 | IC50 (Adenosine receptor A2b): 13300 nM | Ki (Adenosine receptor A3): 874 nM

C[C@H](N)C(=O)Nc1nc2ccc(Cl)cc2c2nc(-c3ccco3)nn12
Ki (Adenosine receptor A1): 390 nM | Selectivity ratio [2]: 0.12 | Ki (Adenosine receptor A2a): 143 nM | Selectivity ratio [3]: 0.33 | Ki (Adenosine receptor A3): 1200 nM

O=C(CCc1ccccc1)Nc1nc2ccc(Cl)cc2c2nc(-c3ccco3)nn12
inhibition [1]: 43% | Ki (Adenosine receptor A3): 23.6 nM

Nc1nc2ccc(Cl)cc2c2nc(-c3ccco3)nn12 [CGS-15943]
inhibition [1]: 100% | Ki (Adenosine receptor A2a): 3.3 nM

— ChEMBL document CHEMBL1131038, “Derivatives of the triazoloquinazoline adenosine antagonist (CGS 15943) having high potency at the human A2B and A3 receptor subtypes” (J Med Chem, 1998)
